{
  "source": "patent US20060276495A1",
  "about": "“Treatment methods of nasal congestion and nasal obstruction” (Schering Corporation, priority 2001, published 2006)",
  "key": {"[1]": {"system": "seasonal allergic rhinitis patients", "assay": "four double-blinded, randomized clinical trials in seasonal allergic rhinitis patients", "assay_type": "in vivo, human", "text": "The clinical efficacy and safety of desloratadine has been documented in over 3,200 seasonal allergic rhinitis patients in four double-blinded, randomized clinical trials.\nEfficacy endpoints in all the studies were Total Symptom Score, Total Nasal Symptom Score, Total Non-nasal Symptom Score, and Health Quality of Life (HQOL) analysis in efficacy trials. […] An important efficacy endpoint analyzed in the desloratadine studies is the AM NOW total symptom score. This parameter measures the total symptom relief by the patient after 24 hours before taking the next day dose."}, "patients with SAR": {"system": "patients with SAR", "assay": "pooled randomized, parallel-group, double-blind, placebo-controlled studies of nasal congestion/stuffiness in patients with SAR", "assay_type": "in vivo, human", "conditions": "for nasal congestion/stuffiness severity score (0-3), 14-day average change from baseline: baseline score 2.4", "experimental": "The effects of desloratadine on nasal congestion/stuffiness are described by using data pooled from randomized, parallel-group, double-blind, placebo-controlled studies of desloratadine in patients with SAR. Patients (12-75 years; pooled n-659-662/group) with a ≧2-year history of seasonal allergic rhinitis and moderate-to-[…] severe symptoms present at the time of enrollment received desloratadine (5 mg or 7.5 mg) or placebo PO once a day for 14 days. The severity (0=none, 1=mild, 2=moderate, 3=severe) of congestion/stuffiness was assessed by patients for the study duration. The 14-day average change in symptom severity score from baseline was assessed. The mean symptom severity score for nasal congestion/stuffiness was 2.4 in each treatment group at baseline, indicating patients had moderate-to-severe nasal congestion before receiving treatment."}},
  "data": [
    {"smiles": "Clc1ccc2c(c1)CCc1cccnc1C2=C1CCNCC1", "note": "[Desloratadine, desloratadine]", "values": [
      {"measurement": "total symptom scores (sum of individual scores for rhinorrhea, sneezing, congestion/stuffiness, nasal itching, itchy/burning eyes, tearing, ocular redness, itchy ears/palate)", "setting": "[1]; 5 mg once daily, adult and adolescent SAR patients", "value": "significantly reduced"},
      {"measurement": "reducing nasal symptoms vs placebo", "setting": "[1]; 5 mg, p<0.01 vs placebo", "value": "significantly (p<0.01) more effective than placebo"},
      {"measurement": "AM NOW total symptom score (symptom relief after 24 hours, before next day dose)", "setting": "[1]; entire 5 mg to 20 mg dosage range, p<0.05", "value": "Statistically significant (p<0.05) reductions were maintained for the full 24 hour dosing interval"},
      {"measurement": "nasal congestion/stuffiness severity score (0-3), 14-day average change from baseline", "setting": "patients with SAR; 5 mg PO once a day for 14 days, P=0.02 vs placebo", "value": "significantly decreased"},
      {"measurement": "total symptom severity", "setting": "patients with SAR; 5 mg or 7.5 mg PO once a day for 14 days, vs placebo", "value": "significantly decreased"},
      {"measurement": "nasal congestion/stuffiness severity score (0-3), 14-day average change from baseline", "setting": "patients with SAR; 7.5 mg PO once a day for 14 days, P=0.01 vs placebo", "value": "significantly decreased"}
    ]}
  ]
}
